# Tests used:
# Format in all cases: cell-based
# [1] = tested on: human oral squamous carcinoma cell line OECM-1; assay: Chemosensitivity assay (MTS), OECM-1 parental cells and spheres; conditions: Cisplatin doses up to 200 μM for 48 hours, FIG. 4(B)
# Description: (§1) Cells were seeding in 10-cm cell culture dish at a density of 1×10^6 cells/dish. For the chemosensitivity assay, cells were treated with 10 to 200 μM Cisplatin (Sigma, St Louis, Mo., U.S.A.) for 48 hours. For the radiosensitivity assay, cells were irradiated using a CyberKnife® radiosurgery system (Accuray, Sunnyvale, Calif., U.S.A.) to deliver different doses (2-10 Gy). Relative survival fraction of cells was determined by MTS assay using the CellTiter® 96 Aqueous One Solution Cell Proliferation Assay kit (Promega, Madison, Wis., U.S.A.) after 36 hours of radiation treatment. Please refer to FIG. 4(A), which depicts the survival (%) of SAS and OECM-1 parental cells and their spheres after radiation treatment, and cell viability was evaluated after these cells were treated with radiation doses up to 10 Gy for 36 hours and were subject to a MTS assay. In FIG. 4(A), SAS and OECM-1 spheres were more radioresistant than their parental cells. Please refer to FIG. 4(B), which depicts the survival (%) of SAS and OECM-1 parental cells and their spheres after the Cisplatin treatment, and cell viability was evaluated after these cells were treated with Cisplatin doses up to 200 μM for 48 hours and were subject to a MTS (3-(4,5-dimethylthiazol-2-yl)-5-(3-carboxymethoxyphenyl)-2-(4-sulfophenyl)-2H-tetrazolium) assay.
# [2] = tested on: human oral squamous carcinoma cell line OECM-1; assay: Combined chemo- and radiotherapy (CCRT) treatment, OECM-1 parental cells and spheres; conditions: 20 μM Cisplatin for 24 hours followed by radiotherapy, FIG. 4(C)
# Description: (§2) Cells were seeding in 10-cm cell culture dish at a density of 1×10^6 cells/dish. For the chemosensitivity assay, cells were treated with 10 to 200 μM Cisplatin (Sigma, St Louis, Mo., U.S.A.) for 48 hours. For the radiosensitivity assay, cells were irradiated using a CyberKnife® radiosurgery system (Accuray, Sunnyvale, Calif., U.S.A.) to deliver different doses (2-10 Gy). Relative survival fraction of cells was determined by MTS assay using the CellTiter® 96 Aqueous One Solution Cell Proliferation Assay kit (Promega, Madison, Wis., U.S.A.) after 36 hours of radiation treatment. To imitate the clinical condition, a combined chemo- and radiotherapy (CCRT) treatment was administered on SAS and OECM-1 parental cells and their spheres. Please refer to FIG. 4(C), which depicts the survival (%) of SAS and OECM-1 parental cells and their spheres after Cisplatin treatment followed by radiation treatment. This assay was performed by treating cells with chemotherapy using 20 μM Cisplatin for 24 hours followed by radiotherapy. […] Please refer to FIG. 4(D), which depicts the survival (%) of SAS and OECM-1 parental cells and their spheres after radiation treatment followed by Cisplatin treatment. […]
# [3] = tested on: human tongue cancer cell line SAS; assay: Chemosensitivity assay (MTS), SAS parental cells and spheres; conditions: Cisplatin doses up to 200 μM for 48 hours, FIG. 4(B)
# Description: as §1
# [4] = tested on: human tongue cancer cell line SAS; assay: Combined chemo- and radiotherapy (CCRT) treatment, SAS parental cells and spheres; conditions: 20 μM Cisplatin for 24 hours followed by radiotherapy, FIG. 4(C)
# Description: as §2
smiles,measurement,setting,value
N.N.[Cl][Pt][Cl] [Cisplatin],"survival (%) after Cisplatin treatment, spheres vs parental cells",[1],spheres were more resistant to Cisplatin than their parental cells
same,"survival (%) after Cisplatin treatment followed by radiation treatment, vs single treatment",[2],more effective in reducing the survival rate of the parental cells and spheres compared with the single treatment
same,"survival (%) after Cisplatin treatment, spheres vs parental cells",[3],spheres were more resistant to Cisplatin than their parental cells
same,"survival (%) after Cisplatin treatment followed by radiation treatment, vs single treatment",[4],more effective in reducing the survival rate of the parental cells and spheres compared with the single treatment
